In the supplement of paper PMC10307832:

Columns and labels:
Assay in all cases: relative viability (nuclei count vs DMSO), 5 days (fraction); higher = more cells survive
[1] = compound: CC[C@H](Nc1ncnc2[nH]cnc12)c1nc2cccc(F)c2c(=O)n1-c1ccccc1 [Idelalisib] + NC(=O)Nc1cc(-c2cccc(F)c2)sc1C(=O)N[C@H]1CCCNC1 [AZD7762] (partner 0.2 µM)
Summary of the method: (§1)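 Five library-drug doses in √10 steps were combined with a fixed anchor-drug dose, or a single drug was given alone, by pin tool to lung cancer cell lines in 1536-well plates the day after seeding. Nuclei were stained and counted after 5 days. Relative viability is the nuclei count in treated wells over that in vehicle wells, taken as the median of duplicate plates.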

[2] = compound: Nc1nc2[nH]cc(CCc3ccc(C(=O)N[C@@H](CCC(=O)O)C(=O)O)cc3)c2c(=O)[nH]1 [Pemetrexed] + CC(=O)Nc1cccc(-n2c(=O)n(C3CC3)c(=O)c3c(Nc4ccc(I)cc4F)n(C)c(=O)c(C)c32)c1 [Trametinib] (partner 0.02 µM)
Summary of the method: as §1

[3] = compound: Nc1nc2[nH]cc(CCc3ccc(C(=O)N[C@@H](CCC(=O)O)C(=O)O)cc3)c2c(=O)[nH]1 [Pemetrexed] + CC(=O)c1c(C)c2cnc(Nc3ccc(N4CCNCC4)cn3)nc2n(C2CCCC2)c1=O [Palbociclib] (partner 0.5 µM)
Summary of the method: as §1

[4] = compound: Nc1nc2[nH]cc(CCc3ccc(C(=O)N[C@@H](CCC(=O)O)C(=O)O)cc3)c2c(=O)[nH]1 [Pemetrexed] + CS(=O)(=O)CCNCc1ccc(-c2ccc3ncnc(Nc4ccc(OCc5cccc(F)c5)c(Cl)c4)c3c2)o1 [Lapatinib] (partner 2 µM)
Summary of the method: as §1

Cell Line | relative viability ([1]; first compound 0.04 µM) | relative viability ([1]; first compound 0.1265 µM) | relative viability ([1]; first compound 0.4 µM) | relative viability ([1]; first compound 1.265 µM) | relative viability ([1]; first compound 4 µM) | relative viability ([2]; first compound 0.002 µM) | relative viability ([2]; first compound 0.006325 µM) | relative viability ([2]; first compound 0.02 µM) | relative viability ([2]; first compound 0.06325 µM) | relative viability ([2]; first compound 0.2 µM) | relative viability ([3]; first compound 0.002 µM) | relative viability ([3]; first compound 0.006325 µM) | relative viability ([3]; first compound 0.02 µM) | relative viability ([3]; first compound 0.06325 µM) | relative viability ([3]; first compound 0.2 µM) | relative viability ([4]; first compound 0.002 µM) | relative viability ([4]; first compound 0.006325 µM) | relative viability ([4]; first compound 0.02 µM) | relative viability ([4]; first compound 0.06325 µM) | relative viability ([4]; first compound 0.2 µM)
HCC-366 | 0.248 | 0.317 | 0.242 | 0.106 | 0.249 | 0.39 | 0.311 | 0.406 | 0.341 | 0.302 | 0.356 | 0.349 | 0.349 | 0.367 | 0.226 | 1.01 | 1.02 | 1.16 | 0.993 | 0.381
HCC-827 | 0.216 | 0.212 | 0.31 | 0.153 | 0.199 | 0.453 | 0.544 | 0.6 | 0.472 | 0.404 | 0.386 | 0.413 | 0.529 | 0.44 | 0.327 | 0.178 | 0.196 | 0.169 | 0.191 | 0.166
HOP-62 | 0.731 | 0.706 | 0.398 | 0.304 | 0.545 | 0.431 | 0.389 | 0.386 | 0.399 | 0.327 | 0.363 | 0.479 | 0.555 | 0.452 | 0.37 | 0.885 | 1.07 | 0.898 | 1.14 | 0.982
IA-LM | – | – | – | – | – | – | – | – | – | – | – | – | – | – | – | 0.719 | 0.869 | 1.03 | 0.827 | 0.636
LCLC-103H | 0.757 | 0.809 | 0.724 | 0.786 | 0.652 | 0.659 | 0.639 | 0.734 | 0.698 | 0.677 | 0.465 | 0.454 | 0.496 | 0.443 | 0.479 | – | – | – | – | –
NCI-H441 | 1.31 | 1.08 | – | 0.715 | 1.32 | 0.536 | 0.501 | 0.448 | 0.303 | 0.247 | 0.212 | 0.229 | 0.211 | 0.18 | 0.204 | – | – | – | – | –
NCI-H520 | – | – | – | – | – | 0.569 | 0.682 | 0.757 | 0.606 | 0.657 | 0.225 | 0.238 | 0.271 | 0.243 | 0.248 | 0.803 | 0.886 | 0.833 | 0.829 | 0.838
NCI-H522 | 0.857 | 0.909 | 0.849 | 0.745 | 0.851 | 0.971 | 0.722 | 0.739 | 0.784 | 0.73 | 1.22 | 0.82 | 1.09 | 0.985 | 0.843 | – | – | – | – | –
NCI-H596 | 1.02 | 1.11 | 1.24 | 0.853 | 0.912 | 0.886 | 0.869 | 0.663 | 0.643 | 0.5 | – | – | – | – | – | 1.03 | 1.09 | 1.07 | 0.82 | 0.644
NCI-H661 | – | – | – | – | – | 0.659 | 0.524 | 0.705 | 0.549 | 0.571 | 0.501 | 0.419 | 0.405 | 0.415 | 0.386 | 0.731 | 0.503 | 0.593 | 0.417 | 0.586
NCI-H1299 | – | – | – | – | – | – | – | – | – | – | – | – | – | – | – | 0.926 | 0.92 | 0.964 | 0.955 | 0.918
NCI-H1563 | – | – | – | – | – | – | – | – | – | – | – | – | – | – | – | 0.83 | 0.804 | 0.921 | 0.971 | 0.986
NCI-H1648 | 0.652 | 0.638 | 0.866 | 0.6 | 0.504 | 0.517 | 0.292 | 0.63 | 0.398 | 0.442 | 0.255 | 0.24 | 0.24 | 0.282 | 0.302 | – | – | – | – | –
NCI-H1650 | – | – | – | – | – | 0.496 | 0.534 | 0.6 | 0.296 | 0.229 | 0.284 | 0.299 | 0.381 | 0.247 | 0.245 | 0.804 | 0.699 | 0.8 | 0.505 | 0.349
NCI-H1703 | – | 0.124 | – | 0.0966 | 0.126 | – | – | – | – | – | – | – | – | – | – | 1.02 | 0.865 | 1.59 | 0.9 | 0.976
NCI-H2009 | – | – | – | – | – | 0.303 | 0.256 | 0.316 | 0.249 | 0.27 | 0.263 | 0.205 | 0.194 | 0.22 | 0.203 | 0.745 | 0.871 | 0.999 | 0.905 | 0.915
NCI-H2023 | – | – | – | – | – | 0.502 | 0.553 | 0.537 | 0.392 | 0.183 | 0.347 | 0.387 | 0.384 | 0.323 | 0.125 | 0.292 | 0.726 | 1.01 | 0.66 | 0.202
NCI-H2228 | – | – | – | – | – | 0.509 | 0.611 | 0.597 | 0.318 | 0.285 | 0.579 | 0.755 | 0.746 | 0.341 | 0.268 | 0.928 | 0.854 | 1.4 | 0.784 | 0.379
NCI-H2342 | 0.626 | 0.498 | 0.49 | 0.484 | 0.46 | 0.763 | 0.757 | 0.773 | 0.857 | 0.841 | 0.494 | 0.505 | 0.57 | 0.514 | 0.521 | – | – | – | – | –
SK-LU-1 | – | – | – | – | – | 0.412 | 0.478 | 0.61 | 0.402 | 0.424 | 0.54 | 0.379 | 0.391 | 0.413 | 0.375 | 0.772 | 0.853 | 0.96 | 0.804 | 0.695
SK-MES-1 | – | – | – | – | – | 0.553 | 0.568 | 0.618 | 0.559 | 0.539 | 0.316 | 0.305 | 0.353 | 0.33 | 0.327 | 0.473 | 0.423 | 0.469 | 0.453 | 0.457
SW 900 | 0.569 | 0.609 | 0.416 | 0.3 | 0.463 | 0.841 | 0.793 | 0.928 | 0.67 | 0.549 | 0.549 | 0.564 | 0.604 | 0.516 | 0.521 | – | – | – | – | –
SW 1573 | – | – | – | – | – | 0.511 | 0.521 | 0.572 | 0.474 | 0.577 | 0.352 | 0.423 | 0.435 | 0.413 | 0.235 | 1.12 | 1.11 | 1.19 | 1.07 | 1.12
